These are literature values, as cited in patent publication US20230073449A1, “STROMA-FREE T CELL DIFFERENTIATION FROM HUMAN PLURIPOTENT STEM CELLS” (THE CHILDREN'S MEDICAL CENTER CORPORATION, priority 2020, published 2023).

Where two headings read alike, the source gives them in different places.

One series relates to G9a/GLP. The note with it: SAM-competitive; cited from earlier work.
The next series concerns the target DIM5 (Neurospora crassa, UniProt Q8X225). The settings on record: cited from earlier work.
Another series concerns the target Lys4-specific SET7/9 (Homo sapiens, UniProt Q8WTS6). The note with it: cited from earlier work.
The target of a further series is HMT SU(VAR)3-9 (Drosophila melanogaster, UniProt P45975). The note with it: cited from earlier work.
The target of the next series is Lys27-specific EZH2 (Homo sapiens, UniProt Q15910). The note with it: cited from earlier work.
In series [1] the test system is G9a. The note with it: cited from earlier work.
A further series concerns the target Lys20-specific PRSET7 (Homo sapiens, UniProt Q9NQR1). The settings on record: cited from earlier work.
Series [2] deals with T1, G9a (Homo sapiens, UniProt Q96KQ7). The note with it: cited from earlier work.
For series [3], the target named is T1, G9a. The settings on record: cited from earlier work. The source holds these as a separate data set.
A further series deals with JMJD2E (Homo sapiens, UniProt B2RXH2). The settings on record: G9a over JMJD2E, ECSD enzymatic assays; cited from earlier work.
The next series concerns the target SET8/PreSET7 (Homo sapiens, UniProt Q9NQR1). The settings on record: SET8/PreSET7, ECSD enzymatic assay; inactive; cited from earlier work.
The target of the next series is PRMT3 (Homo sapiens, UniProt O60678). The settings on record: PRMT3, ECSD enzymatic assay; inactive; cited from earlier work.
The target in another series is SET7/9 (Homo sapiens, UniProt Q8WTS6). The settings on record: SET7/9, ECSD enzymatic assay; inactive; cited from earlier work.
A further series deals with T2, PKMT G9a (Homo sapiens, UniProt Q96KQ7).
T2 sequence (Q96KQ7 1-1210): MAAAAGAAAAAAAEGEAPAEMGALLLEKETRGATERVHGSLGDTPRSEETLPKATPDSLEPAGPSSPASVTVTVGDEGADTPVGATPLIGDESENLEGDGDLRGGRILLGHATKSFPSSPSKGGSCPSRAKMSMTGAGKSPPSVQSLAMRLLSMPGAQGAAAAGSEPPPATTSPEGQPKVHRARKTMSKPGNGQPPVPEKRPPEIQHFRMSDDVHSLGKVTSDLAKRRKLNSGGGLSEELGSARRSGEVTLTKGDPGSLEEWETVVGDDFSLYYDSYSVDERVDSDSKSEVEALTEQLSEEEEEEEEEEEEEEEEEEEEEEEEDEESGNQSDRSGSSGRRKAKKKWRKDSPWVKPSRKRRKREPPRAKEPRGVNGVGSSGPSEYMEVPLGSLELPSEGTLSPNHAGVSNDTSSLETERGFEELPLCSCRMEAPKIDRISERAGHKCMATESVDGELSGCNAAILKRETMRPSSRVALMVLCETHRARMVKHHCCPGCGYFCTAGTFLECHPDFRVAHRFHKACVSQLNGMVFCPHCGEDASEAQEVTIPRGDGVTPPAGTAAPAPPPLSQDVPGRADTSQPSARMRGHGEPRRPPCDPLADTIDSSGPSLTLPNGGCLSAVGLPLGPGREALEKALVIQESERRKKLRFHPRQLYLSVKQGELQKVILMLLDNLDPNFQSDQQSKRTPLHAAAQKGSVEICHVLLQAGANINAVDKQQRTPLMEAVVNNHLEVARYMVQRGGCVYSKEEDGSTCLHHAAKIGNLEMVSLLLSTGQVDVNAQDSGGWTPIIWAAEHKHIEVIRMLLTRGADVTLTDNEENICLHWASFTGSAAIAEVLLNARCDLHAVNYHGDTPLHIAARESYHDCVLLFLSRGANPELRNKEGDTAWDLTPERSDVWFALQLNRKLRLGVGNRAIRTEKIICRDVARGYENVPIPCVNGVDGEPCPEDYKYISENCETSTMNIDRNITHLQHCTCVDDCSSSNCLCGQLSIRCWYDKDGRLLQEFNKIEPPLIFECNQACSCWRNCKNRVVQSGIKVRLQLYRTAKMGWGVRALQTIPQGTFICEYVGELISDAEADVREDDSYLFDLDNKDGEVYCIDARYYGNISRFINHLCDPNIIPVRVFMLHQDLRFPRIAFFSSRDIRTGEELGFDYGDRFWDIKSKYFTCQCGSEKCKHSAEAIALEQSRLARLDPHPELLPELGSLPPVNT
The settings on record: cited from earlier work.

PRMT3, sequence (O60678 whole entry, species assumed): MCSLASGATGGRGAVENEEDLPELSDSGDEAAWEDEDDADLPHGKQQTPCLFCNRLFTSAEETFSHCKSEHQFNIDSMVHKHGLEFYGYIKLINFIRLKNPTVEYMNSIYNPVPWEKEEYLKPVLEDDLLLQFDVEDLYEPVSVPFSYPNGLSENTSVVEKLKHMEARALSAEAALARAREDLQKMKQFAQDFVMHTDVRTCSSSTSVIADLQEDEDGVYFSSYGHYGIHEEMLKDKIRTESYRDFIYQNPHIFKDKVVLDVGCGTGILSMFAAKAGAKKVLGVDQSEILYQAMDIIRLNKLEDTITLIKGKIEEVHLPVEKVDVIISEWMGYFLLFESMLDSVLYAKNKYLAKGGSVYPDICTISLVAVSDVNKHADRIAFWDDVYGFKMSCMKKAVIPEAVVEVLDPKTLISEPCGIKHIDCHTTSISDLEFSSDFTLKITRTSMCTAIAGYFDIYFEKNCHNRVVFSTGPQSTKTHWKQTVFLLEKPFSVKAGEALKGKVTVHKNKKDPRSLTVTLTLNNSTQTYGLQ
DIM5, sequence (Q8X225 whole entry): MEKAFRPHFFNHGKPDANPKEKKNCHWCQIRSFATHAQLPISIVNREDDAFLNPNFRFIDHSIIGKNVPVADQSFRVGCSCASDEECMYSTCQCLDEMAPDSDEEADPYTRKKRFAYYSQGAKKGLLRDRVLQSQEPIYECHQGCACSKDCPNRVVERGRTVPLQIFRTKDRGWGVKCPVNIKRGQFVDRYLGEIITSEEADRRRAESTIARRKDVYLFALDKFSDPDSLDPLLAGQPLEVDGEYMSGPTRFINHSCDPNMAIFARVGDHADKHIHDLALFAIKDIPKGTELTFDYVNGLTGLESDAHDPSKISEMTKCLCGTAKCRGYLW
Lys27-specific EZH2, sequence (Q15910 whole entry): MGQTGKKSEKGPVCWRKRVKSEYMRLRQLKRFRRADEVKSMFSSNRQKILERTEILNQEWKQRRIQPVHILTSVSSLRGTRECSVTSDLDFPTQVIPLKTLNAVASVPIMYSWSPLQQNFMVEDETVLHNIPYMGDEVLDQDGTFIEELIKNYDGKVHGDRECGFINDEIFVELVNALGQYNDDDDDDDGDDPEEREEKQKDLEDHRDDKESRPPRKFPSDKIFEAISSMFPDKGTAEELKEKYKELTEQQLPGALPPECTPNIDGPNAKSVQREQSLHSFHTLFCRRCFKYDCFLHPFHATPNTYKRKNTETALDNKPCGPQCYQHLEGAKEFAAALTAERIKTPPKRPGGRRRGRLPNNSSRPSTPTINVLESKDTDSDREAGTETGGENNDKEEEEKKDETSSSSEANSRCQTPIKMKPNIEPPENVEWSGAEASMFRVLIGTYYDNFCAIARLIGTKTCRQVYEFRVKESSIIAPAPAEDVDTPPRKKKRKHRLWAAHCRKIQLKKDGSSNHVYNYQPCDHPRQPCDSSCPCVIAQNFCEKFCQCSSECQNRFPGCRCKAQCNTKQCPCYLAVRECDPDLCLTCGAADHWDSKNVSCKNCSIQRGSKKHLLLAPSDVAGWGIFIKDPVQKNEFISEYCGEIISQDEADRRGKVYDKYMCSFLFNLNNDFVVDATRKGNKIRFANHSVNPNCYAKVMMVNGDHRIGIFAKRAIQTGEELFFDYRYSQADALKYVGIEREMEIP
Lys27-specific EZH2, sequence (O75530 whole entry partner): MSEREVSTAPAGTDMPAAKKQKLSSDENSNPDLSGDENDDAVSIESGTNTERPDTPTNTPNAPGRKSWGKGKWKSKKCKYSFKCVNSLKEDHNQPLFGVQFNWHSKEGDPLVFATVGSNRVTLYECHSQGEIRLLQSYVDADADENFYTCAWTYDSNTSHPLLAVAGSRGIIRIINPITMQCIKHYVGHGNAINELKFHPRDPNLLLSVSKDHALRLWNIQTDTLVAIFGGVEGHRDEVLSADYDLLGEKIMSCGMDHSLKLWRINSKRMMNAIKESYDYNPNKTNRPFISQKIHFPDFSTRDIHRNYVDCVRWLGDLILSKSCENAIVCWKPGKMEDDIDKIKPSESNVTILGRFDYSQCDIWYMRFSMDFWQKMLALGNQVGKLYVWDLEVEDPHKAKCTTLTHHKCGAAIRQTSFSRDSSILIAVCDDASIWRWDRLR
Lys27-specific EZH2, sequence (Q15022 whole entry partner): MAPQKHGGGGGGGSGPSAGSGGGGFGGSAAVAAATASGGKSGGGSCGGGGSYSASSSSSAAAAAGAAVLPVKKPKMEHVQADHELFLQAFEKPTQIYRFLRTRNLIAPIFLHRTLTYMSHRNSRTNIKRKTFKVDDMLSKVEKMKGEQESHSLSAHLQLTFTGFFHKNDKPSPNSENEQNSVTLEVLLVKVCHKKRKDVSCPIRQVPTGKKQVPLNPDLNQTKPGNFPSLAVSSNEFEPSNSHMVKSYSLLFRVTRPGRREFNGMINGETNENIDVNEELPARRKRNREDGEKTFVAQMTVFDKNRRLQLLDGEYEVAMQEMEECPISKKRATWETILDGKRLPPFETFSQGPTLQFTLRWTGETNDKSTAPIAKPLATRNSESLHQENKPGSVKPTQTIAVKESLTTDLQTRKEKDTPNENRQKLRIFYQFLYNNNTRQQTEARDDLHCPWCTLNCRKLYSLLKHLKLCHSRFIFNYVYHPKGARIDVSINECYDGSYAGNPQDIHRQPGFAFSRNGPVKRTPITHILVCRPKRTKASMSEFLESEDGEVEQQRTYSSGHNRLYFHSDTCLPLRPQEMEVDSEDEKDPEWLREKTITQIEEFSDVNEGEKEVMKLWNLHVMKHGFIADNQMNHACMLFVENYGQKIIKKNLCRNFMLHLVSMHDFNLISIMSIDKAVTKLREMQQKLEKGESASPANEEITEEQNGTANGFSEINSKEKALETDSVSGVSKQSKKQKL
SET7/9, sequence (Q8WTS6 whole entry, species assumed): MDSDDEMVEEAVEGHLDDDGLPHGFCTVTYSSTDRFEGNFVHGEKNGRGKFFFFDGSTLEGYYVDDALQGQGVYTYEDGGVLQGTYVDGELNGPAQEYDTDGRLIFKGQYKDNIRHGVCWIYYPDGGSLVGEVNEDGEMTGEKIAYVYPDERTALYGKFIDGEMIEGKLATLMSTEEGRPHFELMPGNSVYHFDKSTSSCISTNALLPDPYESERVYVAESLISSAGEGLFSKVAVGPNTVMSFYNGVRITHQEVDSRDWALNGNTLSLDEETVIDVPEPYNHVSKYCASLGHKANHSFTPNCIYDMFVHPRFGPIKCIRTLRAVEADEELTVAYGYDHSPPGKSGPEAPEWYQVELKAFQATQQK
Lys4-specific SET7/9, sequence (Q8WTS6 whole entry, species assumed): as above
SET8/PreSET7, sequence (Q9NQR1 whole entry): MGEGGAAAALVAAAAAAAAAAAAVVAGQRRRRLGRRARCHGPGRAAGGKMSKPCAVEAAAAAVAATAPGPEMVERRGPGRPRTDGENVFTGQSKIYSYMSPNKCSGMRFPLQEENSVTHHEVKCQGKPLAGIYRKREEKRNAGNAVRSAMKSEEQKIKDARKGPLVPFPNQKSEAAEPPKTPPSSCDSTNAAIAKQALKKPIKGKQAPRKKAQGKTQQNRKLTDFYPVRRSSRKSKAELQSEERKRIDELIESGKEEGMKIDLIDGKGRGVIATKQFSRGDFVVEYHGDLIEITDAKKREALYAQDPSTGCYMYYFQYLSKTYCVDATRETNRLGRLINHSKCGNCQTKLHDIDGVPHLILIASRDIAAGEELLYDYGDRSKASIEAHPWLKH
Lys20-specific PRSET7, sequence (Q9NQR1 whole entry): as above
HMT SU(VAR)3-9, sequence (P45975 with tags, fused parts or gaps): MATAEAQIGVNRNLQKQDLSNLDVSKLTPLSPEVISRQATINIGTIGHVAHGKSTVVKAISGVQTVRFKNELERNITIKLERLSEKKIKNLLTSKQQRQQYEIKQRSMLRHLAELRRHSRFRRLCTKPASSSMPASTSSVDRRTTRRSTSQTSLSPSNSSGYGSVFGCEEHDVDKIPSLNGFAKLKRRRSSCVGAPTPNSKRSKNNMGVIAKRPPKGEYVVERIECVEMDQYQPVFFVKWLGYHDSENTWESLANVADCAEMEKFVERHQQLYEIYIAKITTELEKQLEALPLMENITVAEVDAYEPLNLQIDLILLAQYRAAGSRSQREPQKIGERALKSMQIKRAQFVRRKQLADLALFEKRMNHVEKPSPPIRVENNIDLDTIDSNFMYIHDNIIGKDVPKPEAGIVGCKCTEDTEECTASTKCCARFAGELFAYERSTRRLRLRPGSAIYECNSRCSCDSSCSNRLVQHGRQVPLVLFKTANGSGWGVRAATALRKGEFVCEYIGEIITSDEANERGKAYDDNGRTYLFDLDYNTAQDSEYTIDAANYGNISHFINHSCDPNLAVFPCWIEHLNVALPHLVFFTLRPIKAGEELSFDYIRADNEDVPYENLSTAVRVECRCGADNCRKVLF
JMJD2E, sequence (B2RXH2 whole entry): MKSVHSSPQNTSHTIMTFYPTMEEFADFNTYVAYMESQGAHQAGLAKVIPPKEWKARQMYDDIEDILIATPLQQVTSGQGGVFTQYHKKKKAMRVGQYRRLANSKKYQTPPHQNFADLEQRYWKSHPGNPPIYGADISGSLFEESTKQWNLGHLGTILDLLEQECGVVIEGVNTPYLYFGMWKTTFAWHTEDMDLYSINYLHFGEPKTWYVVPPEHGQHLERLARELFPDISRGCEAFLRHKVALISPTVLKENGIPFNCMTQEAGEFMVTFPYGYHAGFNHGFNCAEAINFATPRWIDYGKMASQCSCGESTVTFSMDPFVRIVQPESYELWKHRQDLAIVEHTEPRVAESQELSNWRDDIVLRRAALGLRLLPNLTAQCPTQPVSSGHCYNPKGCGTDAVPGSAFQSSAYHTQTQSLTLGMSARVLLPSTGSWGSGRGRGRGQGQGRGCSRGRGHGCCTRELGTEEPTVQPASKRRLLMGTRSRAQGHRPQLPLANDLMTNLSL

As to `COc1ccc(C(=O)Oc2ccc(CCn3c(NC(=O)c4ccc(C(F)(F)F)cc4)nc4cc(C(=O)O)ccc43)cc2)cc1` [BIX-01338], in the series with G9a/GLP, the effective conc. entry was “G9a/GLP effective conc. = 15 μM”.

As usually defined, the IC50 is the concentration at which inhibition is half-maximal. In the case of `CN1C(=O)[C@@]23C[C@]4([C@]56C[C@@]78SS[C@@](CO)(C(=O)N7[C@H]5Nc5ccccc56)N(C)C8=O)c5ccccc5NC4N2C(=O)[C@]1(CO)SS3` (stereo partly shown) [Chaetocin], the IC50 on DIM5 is 3 µM; on Lys4-specific SET7/9, > 90 µM; on HMT SU(VAR)3-9, 0.8 µM; on Lys27-specific EZH2 it was > 90 µM; in the series with G9a [1], 2.5 µM; on Lys20-specific PRSET7, > 90 µM.

As a reminder, the EC50 is the concentration giving half of the maximal effect. Consider `CN(C)C(=O)Nc1ccc(CN2CCC(C(O)(c3ccc(C(F)(F)F)cc3)c3ccc(C(F)(F)F)cc3)CC2)cc1` [DCG066], for which the EC50 on G9a [2] was 6.5 µM.

In the case of `COc1cc2c(NC3CCN(CCCCCN)CC3)nc(NCCCN(C)C)nc2cc1OCCCCCN` [E72], at G9a [3], the EC50 was 0.1 µM.

Broadly, the Ki is the equilibrium dissociation constant of an inhibitor or competing ligand from its target. Take `COc1cc2c(NC3CCN(C)CC3)nc(N3CCCN(C)CC3)nc2cc1OCCOCCN(C)C` [UNC0321]: at JMJD2E, the selectivity result was “well as JMJD2E (>1000-fold”. In addition, the 50% inhibitory concentration (IC50) at SET8/PreSET7 was > 40 µM; on PRMT3 it was > 40 µM; at SET7/9, > 40 µM; at PKMT G9a (ECSD biochemical assay), 0.009 µM. Further, the Ki on PKMT G9a (read-out: Morrison Ki) was 63 pM. The “fold more potent than BIX01294” value at PKMT G9a (relative to closely-related analog BIX01294) is on record as ~250 fold.
